Experiments:
skeletal muscle spasm = conditions: after application
Description: Cyclobenzaprine is a 5-HT2 receptor antagonist and its muscle relaxant effect is due to inhibition of serotonergic neurons.

[1] = taken orally; cited from earlier work
[2] = taken orally; cited from earlier work; remark: listed apart in the source

CN(C)CCC=C1c2ccccc2C=Cc2ccccc21 [cyclobenzaprine]
time to clinical improvement (local pain and tenderness, range of motion) (skeletal muscle spasm): ≤ 20 min
half life [1]: one to three
binding to plasma proteins [2]: highly bound to plasma proteins
